ChEMBL document CHEMBL1133572, “Protease inhibitors: current status and future prospects” (J Med Chem, 2000)

Legend:
Plasmepsin II = Plasmepsin II (Plasmodium falciparum, UniProt P46925); assay: Inhibitory concentration for Plasmodium falciparum plasmepsin-2.
Cathepsin D [1] = target: T1, Cathepsin D (Homo sapiens, UniProt P07339)
[2] = Cmax value in the period of […] hr after dosing.; type: ADME, organism-based; details: in vivo
[3] = Cmax value in the period of […] hr after dosing, when administered with ritonavir.; type: ADME, organism-based; details: in vivo
MT4 = assay: cells; details: Homo sapiens
Plasmepsin I = Plasmepsin I (Plasmodium falciparum, UniProt P39898); assay: Inhibitory concentration for Plasmodium falciparum plasmepsin-1.
[4] = target: Plasmepsin II (Plasmodium falciparum) (UniProt P46925); assay: Inhibition of Plasmodium falciparum plasmepsin-2 at 10 uM
[5] = Inhibitory concentration against the live parasite in preventing hemoglobin degradation.; type: functional
Neprilysin = target: T2, Neprilysin (Rattus norvegicus, UniProt P07861); assay: Inhibitory activity against neutral Endopeptidase
T2 sequence (P07861 whole entry): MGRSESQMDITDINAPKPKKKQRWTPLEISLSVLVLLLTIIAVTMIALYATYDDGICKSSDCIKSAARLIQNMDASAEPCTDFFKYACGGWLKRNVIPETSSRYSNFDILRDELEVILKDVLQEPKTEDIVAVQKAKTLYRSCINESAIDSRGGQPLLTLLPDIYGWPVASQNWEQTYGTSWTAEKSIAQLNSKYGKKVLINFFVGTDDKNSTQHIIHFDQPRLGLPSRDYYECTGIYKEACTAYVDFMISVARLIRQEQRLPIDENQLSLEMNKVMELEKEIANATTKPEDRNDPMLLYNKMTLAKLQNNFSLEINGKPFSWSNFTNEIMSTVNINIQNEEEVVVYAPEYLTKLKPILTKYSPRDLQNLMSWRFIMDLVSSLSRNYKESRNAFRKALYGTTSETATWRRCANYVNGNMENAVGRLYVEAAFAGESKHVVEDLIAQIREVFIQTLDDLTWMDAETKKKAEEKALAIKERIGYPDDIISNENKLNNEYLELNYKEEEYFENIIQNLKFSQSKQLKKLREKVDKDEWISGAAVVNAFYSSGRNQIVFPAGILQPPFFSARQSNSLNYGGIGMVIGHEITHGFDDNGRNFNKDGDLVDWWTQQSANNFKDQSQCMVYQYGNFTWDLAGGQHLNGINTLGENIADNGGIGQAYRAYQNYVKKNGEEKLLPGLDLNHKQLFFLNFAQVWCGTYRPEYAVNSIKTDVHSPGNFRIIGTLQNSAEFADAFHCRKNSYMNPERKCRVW

[6] = target: T3, Human rhinovirus A protease (Human rhinovirus sp., UniProt Q4U254); assay: Effective concentration against human rhinovirus 3C protease.
T3 sequence (Q4U254 whole entry): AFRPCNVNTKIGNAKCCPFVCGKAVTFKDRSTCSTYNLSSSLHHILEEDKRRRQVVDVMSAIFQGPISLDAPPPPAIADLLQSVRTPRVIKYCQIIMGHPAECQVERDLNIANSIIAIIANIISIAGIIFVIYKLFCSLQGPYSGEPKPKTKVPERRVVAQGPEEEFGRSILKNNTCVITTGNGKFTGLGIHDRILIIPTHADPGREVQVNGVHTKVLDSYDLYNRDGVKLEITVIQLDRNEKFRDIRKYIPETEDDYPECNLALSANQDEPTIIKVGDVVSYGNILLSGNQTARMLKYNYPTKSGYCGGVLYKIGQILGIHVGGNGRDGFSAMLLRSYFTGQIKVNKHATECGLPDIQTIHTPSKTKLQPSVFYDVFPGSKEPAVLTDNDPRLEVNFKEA

[7] = oral bioavailability in dogs and monkeys.; type: ADME, organism-based, Canis lupus familiaris; details: dog, in vivo, read-out: Bioavailabiility
Caspase-3 = Caspase-3 (Homo sapiens, UniProt P42574); assay: Inhibitory activity against caspase-3.
Caspase-1 = target: T4, Caspase-1 (Homo sapiens, UniProt P29466)
T4 sequence (P29466 whole entry): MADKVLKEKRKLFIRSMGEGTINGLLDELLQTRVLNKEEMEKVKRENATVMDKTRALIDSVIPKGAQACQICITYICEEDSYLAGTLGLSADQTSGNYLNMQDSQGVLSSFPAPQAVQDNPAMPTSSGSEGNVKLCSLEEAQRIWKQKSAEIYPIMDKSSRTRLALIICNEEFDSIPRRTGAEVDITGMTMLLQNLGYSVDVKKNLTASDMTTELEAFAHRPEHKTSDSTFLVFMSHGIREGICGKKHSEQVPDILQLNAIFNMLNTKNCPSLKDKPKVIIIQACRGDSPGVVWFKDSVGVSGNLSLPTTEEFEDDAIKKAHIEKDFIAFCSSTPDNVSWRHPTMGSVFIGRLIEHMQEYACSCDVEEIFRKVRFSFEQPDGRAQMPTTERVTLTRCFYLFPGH

Cathepsin D [8] = target: T1, Cathepsin D; assay: Inhibitory concentration against cathepsin D
Renin [9] = target: T5, Renin (Homo sapiens, UniProt P00797); assay: Inhibitory concentration against renin..
T5 sequence (P00797 whole entry): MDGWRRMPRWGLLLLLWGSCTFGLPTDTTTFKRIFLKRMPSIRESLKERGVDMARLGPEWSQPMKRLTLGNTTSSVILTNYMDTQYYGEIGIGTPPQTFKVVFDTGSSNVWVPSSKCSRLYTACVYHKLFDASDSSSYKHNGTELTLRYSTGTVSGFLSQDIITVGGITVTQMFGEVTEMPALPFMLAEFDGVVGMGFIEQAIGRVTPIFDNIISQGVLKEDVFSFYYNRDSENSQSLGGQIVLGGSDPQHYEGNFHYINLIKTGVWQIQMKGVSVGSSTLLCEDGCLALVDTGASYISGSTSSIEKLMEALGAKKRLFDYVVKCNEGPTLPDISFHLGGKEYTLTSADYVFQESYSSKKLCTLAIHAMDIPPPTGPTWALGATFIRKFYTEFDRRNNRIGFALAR

[10] = Inhibitory concentration against SAP
[11] = Inhibitory concentration against several aspartic proteases of Candida albicans
Renin [12] = target: T5, Renin; assay: Inhibitory concentration against renin.
Homo sapiens = species on record: Homo sapiens; assay: Half life in humans.; type: ADME, organism-based; details: in vivo
[13] = Half life.; type: ADME
[14] = target: Neutrophil elastase (Homo sapiens) (UniProt P08246); assay: Inhibition of elastase.
Cricetinae gen. sp. [15] = assay: Inhibition against at the dose of 30 mg/kg after 30 minutes.; type: functional, Cricetulus griseus; details: 0.5 h
Cricetinae gen. sp. [16] = assay: Inhibition against at the dose of 30 mg/kg after 5 hr.; type: functional, Cricetulus griseus
Cricetinae gen. sp. [17] = assay: Inhibitory concentration against elastase; type: functional, Cricetulus griseus; details: read-out: ID50 (the source's name)

T1 sequence (P07339 65-162 limits assumed): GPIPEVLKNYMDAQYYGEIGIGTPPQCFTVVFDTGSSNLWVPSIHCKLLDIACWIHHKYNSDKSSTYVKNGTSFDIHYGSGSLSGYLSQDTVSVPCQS
T1 sequence (P07339 169-412 limits assumed): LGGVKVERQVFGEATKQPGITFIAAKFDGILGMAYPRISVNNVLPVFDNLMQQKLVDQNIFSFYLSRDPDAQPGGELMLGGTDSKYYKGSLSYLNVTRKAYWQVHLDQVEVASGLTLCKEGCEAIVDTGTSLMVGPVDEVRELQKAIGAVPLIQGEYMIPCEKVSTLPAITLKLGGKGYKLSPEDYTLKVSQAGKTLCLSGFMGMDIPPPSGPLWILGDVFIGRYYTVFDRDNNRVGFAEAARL
Chain of Neutrophil elastase (Homo sapiens) (P08246 whole entry): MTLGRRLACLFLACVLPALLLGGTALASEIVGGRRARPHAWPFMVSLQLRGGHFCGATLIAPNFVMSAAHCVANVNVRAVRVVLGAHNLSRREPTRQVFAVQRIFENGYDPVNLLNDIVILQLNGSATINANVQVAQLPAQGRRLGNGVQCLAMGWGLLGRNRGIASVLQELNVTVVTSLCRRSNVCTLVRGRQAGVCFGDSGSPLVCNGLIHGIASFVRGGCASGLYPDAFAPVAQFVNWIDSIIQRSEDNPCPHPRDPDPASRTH
Chain of Plasmepsin II (Plasmodium falciparum) (P46925 125-453 limits assumed): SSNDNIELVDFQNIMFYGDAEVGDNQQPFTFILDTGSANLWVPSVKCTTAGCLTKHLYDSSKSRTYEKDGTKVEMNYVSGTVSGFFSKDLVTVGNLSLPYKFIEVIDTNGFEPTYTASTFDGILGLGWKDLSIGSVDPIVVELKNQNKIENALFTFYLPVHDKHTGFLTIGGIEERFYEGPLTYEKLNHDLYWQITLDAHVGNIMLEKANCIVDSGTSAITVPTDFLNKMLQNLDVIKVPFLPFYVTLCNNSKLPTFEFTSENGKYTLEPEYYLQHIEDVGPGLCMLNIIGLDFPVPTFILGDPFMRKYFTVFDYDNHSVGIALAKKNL
Chain of Plasmepsin I (P39898 whole entry): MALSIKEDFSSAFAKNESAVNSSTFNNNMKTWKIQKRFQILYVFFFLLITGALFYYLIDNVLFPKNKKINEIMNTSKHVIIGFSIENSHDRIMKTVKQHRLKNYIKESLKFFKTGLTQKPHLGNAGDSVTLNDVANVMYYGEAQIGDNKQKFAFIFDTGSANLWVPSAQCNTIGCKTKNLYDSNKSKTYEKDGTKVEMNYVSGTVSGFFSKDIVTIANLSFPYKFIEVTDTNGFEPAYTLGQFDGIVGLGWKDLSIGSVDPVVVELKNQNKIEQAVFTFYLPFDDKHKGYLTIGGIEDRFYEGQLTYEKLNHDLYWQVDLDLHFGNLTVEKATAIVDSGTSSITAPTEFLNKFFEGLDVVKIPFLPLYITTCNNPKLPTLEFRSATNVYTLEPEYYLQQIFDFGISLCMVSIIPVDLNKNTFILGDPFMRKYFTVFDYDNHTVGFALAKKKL
Chain of Plasmepsin II (P46925 whole entry): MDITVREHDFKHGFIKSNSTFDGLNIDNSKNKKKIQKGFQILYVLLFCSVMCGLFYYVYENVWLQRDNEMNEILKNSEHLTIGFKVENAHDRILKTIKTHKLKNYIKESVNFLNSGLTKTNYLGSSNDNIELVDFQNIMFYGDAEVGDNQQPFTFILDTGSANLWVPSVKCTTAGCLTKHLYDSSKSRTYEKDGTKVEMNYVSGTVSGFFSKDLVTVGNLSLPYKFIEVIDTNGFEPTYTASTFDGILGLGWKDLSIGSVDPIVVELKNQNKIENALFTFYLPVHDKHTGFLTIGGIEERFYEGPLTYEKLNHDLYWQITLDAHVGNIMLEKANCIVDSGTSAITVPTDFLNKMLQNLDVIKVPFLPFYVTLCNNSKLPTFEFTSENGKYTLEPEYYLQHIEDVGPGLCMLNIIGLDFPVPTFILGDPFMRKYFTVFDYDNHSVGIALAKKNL
Chain of Caspase-3 (P42574 29-175 limits assumed): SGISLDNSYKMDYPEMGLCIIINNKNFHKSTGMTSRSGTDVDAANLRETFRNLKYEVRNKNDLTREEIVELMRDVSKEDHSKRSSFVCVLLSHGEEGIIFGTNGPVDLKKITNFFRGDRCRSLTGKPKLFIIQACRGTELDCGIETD
Chain of Caspase-3 (P42574 176-277 limits assumed): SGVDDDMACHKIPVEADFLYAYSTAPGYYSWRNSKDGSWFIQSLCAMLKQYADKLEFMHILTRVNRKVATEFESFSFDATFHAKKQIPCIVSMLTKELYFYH

SMILES: CCCCNC(=O)C[C@H](O)[C@H](CC(C)C)NC(=O)[C@@H](NC(=O)Cc1ccc2ccccc2c1)C(C)CC (stereo not given in full)
- IC50 (Plasmepsin II): 50 nM
- IC50 (Cathepsin D [1]): 320 nM

SMILES: Cc1cccc(C)c1OCC(=O)N[C@@H](Cc1ccccc1)[C@@H](O)C[C@H](Cc1ccccc1)NC(=O)[C@H](C(C)C)N1CCCNC1=O [LOPINAVIR]
- Cmax at 8 h [2]: < 100 ng/mL
- Cmax at 8 h [3]: 5500 ng/mL
- EC50 (MT4): 100 nM

SMILES: CCCCC(O)[C@H](C)C[C@H](O)[C@H](CC1CCCCC1)NC(=O)[C@H](CC(C)C)NC(=O)[C@H](Cc1ccccc1)NC(=O)OC(C)(C)C (stereo not given in full)
- IC50 (Plasmepsin I): 500 nM
- inhibition [4]: 22%
- IC50 [5]: 5000 nM

SMILES: C[C@H](NC(=O)[C@@H](CS)Cc1ccc2c(c1)OCO2)C(=O)O
- Ki (Neprilysin): 5.6 nM

SMILES: CCOC(=O)/C=C/[C@H](CCC(N)=O)NC(=O)[C@H](Cc1ccc(C)cc1)NC(=O)[C@@H](NC(=O)SC1CCCC1)C(C)(C)C
- EC50 [6]: 56 nM

SMILES: CN1CCN=C1c1cccc(Oc2nc(Oc3cc(C(=N)N)ccc3O)c(F)c(N(C)CC(=O)O)c2F)c1 [FIDEXABAN]
- bioavailability [7]: 20%

SMILES: O=C1C[C@H](NC(=O)[C@@H]2CCC[C@@H]3CCC[C@H](NC(=O)OCc4ccccc4)C(=O)N32)C(O)O1 (stereo not given in full)
- IC50 (Caspase-3): > 10000 nM
- IC50 (Caspase-1): 36 nM

SMILES: CCCC[C@@H](C(=O)N[C@@H](CC1CCCCC1)[C@@H](O)C[C@H](C(=O)NCCN(C)C)C(C)C)N1CCN(C(=O)N2CCN(C)CC2)[C@H](Cc2ccccc2)C1=O
- IC50 (Cathepsin D [8]): 58000 nM
- IC50 (Renin [9]): > 100 nM
- IC50 [10]: 6.2 nM

SMILES: CCCC[C@@H](C(=O)N[C@@H](CC1CCCCC1)[C@@H](O)C[C@H](C(=O)NCCC)C(C)C)N1CCN(C(=O)N2CCN(C)CC2)[C@H](Cc2ccccc2)C1=O
- IC50 [11]: 1.4 nM
- IC50 (Cathepsin D [8]): 770 nM
- IC50 (Renin [12]): 7.1 nM

SMILES: CC1CNc2c(cccc2S(=O)(=O)N[C@@H](CCCNC(=N)N)C(=O)N2CC[C@@H](C)C[C@@H]2C(=O)O)C1 (stereo not given in full) [ARGATROBAN]
- T1/2 (Homo sapiens): 40 h

SMILES: CC[C@@H](NC(=O)N1C(=O)[C@](C)(CC)[C@@H]1Oc1ccc(CC(=O)O)cc1)c1ccccc1
- half-life [13]: 5 h
- K obs / 1 [14]: 91000 M⁻¹ s⁻¹
- inhibition in vivo at 30 mg/kg (Cricetinae gen. sp. [15]): 98%
- inhibition in vivo at 30 mg/kg (Cricetinae gen. sp. [16]): 51%

SMILES: CC(C)(C)C(=O)Oc1ccc(S(=O)(=O)Nc2ccccc2C(=O)NCC(=O)O)cc1
- ED50 (Cricetinae gen. sp. [17]): 0.082 mg/kg
